US20110086759A1, “CHEMICAL COMPOUNDS” (SYNGENTA CROP PROTECTION, INC., priority 2007, published 2011)

What was measured:
Type in all cases: in vivo
[1] = system: Alopecurus myosuroides (ALOMY); experiment: Pre-emergence biological efficacy, glasshouse pot test; conditions: 312 h
In short: (§1)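 Sow seeds in pots of standard soil; after one day in the glasshouse, spray test compound (1000 or 250 g/ha) in aqueous acetone/water with 0.5% Tween 20. Grow 13 days at 24/16 °C day/night, then score damage from 0 to 100.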

[2] = system: Amaranthus retoflexus (AMARE); experiment: as above; conditions: Amaranthus retroflexus, 312 h
In short: as §1

[3] = system: Echinochloa crus-galli (ECHCG); experiment: as above; conditions: 312 h
In short: as §1

[4] = system: Ipomea hederaceae (IPOHE); experiment: as above; conditions: Ipomoea hederacea, 312 h
In short: as §1

Setaria faberi (SETFA) [5] = experiment: as above; conditions: 312 h
In short: as §1

Solanum nigrum (SOLNI) [6] = experiment: as above; conditions: 312 h
In short: as §1

[7] = system: Alopecurus myosuroides (ALOMY); experiment: Post-emergence biological efficacy, glasshouse pot test; conditions: 312 h
In short: (§2)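 Scored 13 days after spraying on a 0 (no damage) to 100 (total damage) scale. Treatment was a post-emergence spray at 1000 or 250 g/ha, from acetone/water 50:50 plus 0.5% Tween 20, onto 8-day-old plants in soil pots. Growth at 24/16° C, 14 h photoperiod, 65% humidity, watered twice daily.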

[8] = system: Amaranthus retoflexus (AMARE); experiment: as above; conditions: Amaranthus retroflexus, 312 h
In short: as §2

[9] = system: Echinochloa crus-galli (ECHCG); experiment: as above; conditions: 312 h
In short: as §2

[10] = system: Ipomea hederaceae (IPOHE); experiment: as above; conditions: Ipomoea hederacea, 312 h
In short: as §2

Setaria faberi (SETFA) [11] = experiment: as above; conditions: 312 h
In short: as §2

Solanum nigrum (SOLNI) [12] = experiment: as above; conditions: 312 h
In short: as §2

[13] = pre-emergence, 1,000 g/ha, evaluated after 13 days (100=total damage; 0=no damage), read-out: Percentage damage ALOMY
[14] = pre-emergence, 1,000 g/ha, evaluated after 13 days (100=total damage; 0=no damage), read-out: Percentage damage AMARE
[15] = pre-emergence, 1,000 g/ha, evaluated after 13 days (100=total damage; 0=no damage), read-out: Percentage damage ECHCG
[16] = pre-emergence, 1,000 g/ha, evaluated after 13 days (100=total damage; 0=no damage), read-out: Percentage damage IPOHE
[17] = pre-emergence, 1,000 g/ha, evaluated after 13 days (100=total damage; 0=no damage), read-out: Percentage damage SETFA
[18] = pre-emergence, 1,000 g/ha, evaluated after 13 days (100=total damage; 0=no damage), read-out: Percentage damage SOLNI
[19] = post-emergence, 1,000 g/ha, evaluated after 13 days (100=total damage; 0=no damage), read-out: Percentage damage caused to weed species, ALOMY
[20] = post-emergence, 1,000 g/ha, evaluated after 13 days (100=total damage; 0=no damage), read-out: Percentage damage caused to weed species, AMARE
[21] = post-emergence, 1,000 g/ha, evaluated after 13 days (100=total damage; 0=no damage), read-out: Percentage damage caused to weed species, ECHCG
[22] = post-emergence, 1,000 g/ha, evaluated after 13 days (100=total damage; 0=no damage), read-out: Percentage damage caused to weed species, IPOHE
[23] = post-emergence, 1,000 g/ha, evaluated after 13 days (100=total damage; 0=no damage), read-out: Percentage damage caused to weed species, SETFA
[24] = post-emergence, 1,000 g/ha, evaluated after 13 days (100=total damage; 0=no damage), read-out: Percentage damage caused to weed species, SOLNI
[25] = pre-emergence, rate 1,000 g/ha, evaluated after 13 days (100=total damage to plant; 0=no damage), read-out: Percentage damage caused to weed species, ALOMY
[26] = pre-emergence, rate 1,000 g/ha, evaluated after 13 days (100=total damage to plant; 0=no damage), read-out: Percentage damage caused to weed species, AMARE
[27] = pre-emergence, rate 1,000 g/ha, evaluated after 13 days (100=total damage to plant; 0=no damage), read-out: Percentage damage caused to weed species, ECHCG
[28] = pre-emergence, rate 1,000 g/ha, evaluated after 13 days (100=total damage to plant; 0=no damage), read-out: Percentage damage caused to weed species, IPOHE
[29] = pre-emergence, rate 1,000 g/ha, evaluated after 13 days (100=total damage to plant; 0=no damage), read-out: Percentage damage caused to weed species, SETFA
[30] = pre-emergence, rate 1,000 g/ha, evaluated after 13 days (100=total damage to plant; 0=no damage), read-out: Percentage damage caused to weed species, SOLNI
[31] = Rate 1,000 g/ha, post-emergence spray, evaluated after 13 days (100=total damage to plant; 0=no damage to plant), read-out: Percentage damage caused to weed species, post-emergence, ALOMY
[32] = Rate 1,000 g/ha, post-emergence spray, evaluated after 13 days (100=total damage to plant; 0=no damage to plant), read-out: Percentage damage caused to weed species, post-emergence, AMARE
[33] = Rate 1,000 g/ha, post-emergence spray, evaluated after 13 days (100=total damage to plant; 0=no damage to plant), read-out: Percentage damage caused to weed species, post-emergence, ECHCG
[34] = Rate 1,000 g/ha, post-emergence spray, evaluated after 13 days (100=total damage to plant; 0=no damage to plant), read-out: Percentage damage caused to weed species, post-emergence, IPOHE
[35] = Rate 1,000 g/ha, post-emergence spray, evaluated after 13 days (100=total damage to plant; 0=no damage to plant), read-out: Percentage damage caused to weed species, post-emergence, SETFA
[36] = Rate 1,000 g/ha, post-emergence spray, evaluated after 13 days (100=total damage to plant; 0=no damage to plant), read-out: Percentage damage caused to weed species, post-emergence, SOLNI

Row | Structure (SMILES) | pest or weed control at 1000 g/ha [1, 13] [%] | pest or weed control at 1000 g/ha [2, 14] [%] | pest or weed control at 1000 g/ha [3, 15] [%] | pest or weed control at 1000 g/ha [4, 16] [%] | pest or weed control at 1000 g/ha (Setaria faberi (SETFA) [5]; [17]) [%] | pest or weed control at 1000 g/ha (Solanum nigrum (SOLNI) [6]; [18]) [%] | pest or weed control at 1000 g/ha [7, 19] [%] | pest or weed control at 1000 g/ha [8, 20] [%] | pest or weed control at 1000 g/ha [1, 25] [%] | pest or weed control at 1000 g/ha [2, 26] [%] | pest or weed control at 1000 g/ha [3, 27] [%] | pest or weed control at 1000 g/ha [4, 28] [%] | pest or weed control at 1000 g/ha (Setaria faberi (SETFA) [5]; [29]) [%] | pest or weed control at 1000 g/ha (Solanum nigrum (SOLNI) [6]; [30]) [%] | pest or weed control at 1000 g/ha [7, 31] [%] | pest or weed control at 1000 g/ha [8, 32] [%] | pest or weed control at 1000 g/ha [9, 33] [%] | pest or weed control at 1000 g/ha [10, 34] [%] | pest or weed control at 1000 g/ha (Setaria faberi (SETFA) [11]; [35]) [%] | pest or weed control at 1000 g/ha (Solanum nigrum (SOLNI) [12]; [36]) [%] | other results
1 | COC(=O)c1nc(C2CC2)nc(NCc2nc3ccccc3s2)c1Cl [Compound 4-168, 4-(Benzothiazol-2-ylmethylamino)-5-chloro-2-cyclopropyl-6-methoxycarbonyl-pyrimidine] | 20 | 20 | 20 | 50 | 0 | 40 | 30 | 90 |  |  |  |  |  |  |  |  |  |  |  |  | pest or weed control at 1000 g/ha [9, 21]: 40%; pest or weed control at 1000 g/ha [10, 22]: 60%; pest or weed control at 1000 g/ha (Setaria faberi (SETFA) [11]; [23]): 60%; pest or weed control at 1000 g/ha (Solanum nigrum (SOLNI) [12]; [24]): 70%
2 | COC(=O)c1nc(C2CC2)nc(NC2CCCCC2)c1Cl [Compound 4-35, 5-Chloro-4-cyclohexylamino-2-cyclopropyl-6-methoxycarbonyl-pyrimidine] | 0 | 0 | 0 | 0 | 0 | 0 | 30 | 30 |  |  |  |  |  |  |  |  |  |  |  |  | pest or weed control at 1000 g/ha [9, 21]: 0%; pest or weed control at 1000 g/ha [10, 22]: 60%; pest or weed control at 1000 g/ha (Setaria faberi (SETFA) [11]; [23]): 20%; pest or weed control at 1000 g/ha (Solanum nigrum (SOLNI) [12]; [24]): 40%
3 | COC(=O)c1nc(C2CC2)nc(N[C@@H](CO)[C@@H](O)c2ccc([N+](=O)[O-])cc2)c1Cl [4-275 (S,S), 5-Chloro-2-cyclopropyl-4-[(1S, 2S)-2-hydroxy-1-hydroxymethyl-2-(4-nitrophenyl)-ethylamino]-6-methoxycarbonyl-pyrimidine] | 30 | 100 | 30 | 100 | 60 | 100 | 40 | 100 |  |  |  |  |  |  |  |  |  |  |  |  | pest or weed control at 1000 g/ha [9, 21]: 60%; pest or weed control at 1000 g/ha [10, 22]: 70%; pest or weed control at 1000 g/ha (Setaria faberi (SETFA) [11]; [23]): 80%; pest or weed control at 1000 g/ha (Solanum nigrum (SOLNI) [12]; [24]): 100%
4 | COC(=O)c1nc(C2CC2)nc(N(C)Cc2cccnc2)c1Cl [Compound 5-156, 5-Chloro-2-cyclopropyl-6-methoxycarbonyl-4-(N-methyl-N-pyridin-3-ylmethyl-amino)pyrimidine] |  |  |  |  |  |  |  |  | 10 | 90 | 0 | 60 | 0 | 20 | 30 | 100 | 20 | 80 | 60 | 80 | 
5 | COC(=O)c1nc(-c2ccc(C(F)(F)F)c(Cl)c2)nc(NCc2ccco2)c1Cl [Compound 235-48, 5-Chloro-2-(3-chloro-4-trifluoromethyl-phenyl)-4-(furan-2-ylmethylamino)-6-methoxycarbonyl-pyrimidine] |  |  |  |  |  |  |  |  | 0 | 10 | 0 | 20 | 0 | 20 | 10 | 80 | 0 | 60 | 10 | 80 | 
6 | COC(=O)c1nc(C2CC2)nc(NCC2CCC(C#N)CC2)c1Cl (stereo not drawn) [Compound 4-51, 5-Chloro-4-[(4-cyanocyclohexyl)methylamino]-2-cyclopropyl-6-methoxycarbonyl-pyrimidine] | 0 | 30 | 0 | 50 | 0 | 10 | 10 | 50 |  |  |  |  |  |  |  |  |  |  |  |  | pest or weed control at 1000 g/ha [9, 21]: 20%; pest or weed control at 1000 g/ha [10, 22]: 60%; pest or weed control at 1000 g/ha (Setaria faberi (SETFA) [11]; [23]): 50%; pest or weed control at 1000 g/ha (Solanum nigrum (SOLNI) [12]; [24]): 50%
7 | COC(=O)c1nc(-c2ccc(OC)cc2)nc(NCc2ccco2)c1Cl [Compound 250-48, 5-Chloro-4-(furan-2-ylmethylamino)-2-(4-methoxyphenyl)-6-methoxycarbonyl-pyrimidine] |  |  |  |  |  |  |  |  | 0 | 30 | 0 | 0 | 20 | 0 | 0 | 90 | 30 | 30 | 50 | 40 | 
8 | COC(=O)c1nc(-c2ccc(Cl)s2)nc(NC2CC2)c1Cl [Compound 262-30, 5-Chloro-2-(5-chloro-thiophen-2-yl)-4-cyclopropylamino-6-methoxycarbonyl-pyrimidine] |  |  |  |  |  |  |  |  | 0 | 0 | 0 | 0 | 0 | 0 | 0 | 80 | 10 | 50 | 10 | 90 | 
9 | Cc1c(NCC2CC2)nc(C2CC2)nc1OCC(=O)NCC1CC1 [Compound 266-20, 2-cyclopropyl-4-cyclopropylmethylamino-6-cyclopropylmethylaminocarbonylmethoxy-5-methylpyrimidine] |  |  |  |  |  |  |  |  | 0 | 100 | 0 | 40 | 0 | 50 | 0 | 90 | 0 | 70 | 0 | 80 | 
